Data from patent US10487093B2, “Heterocyclic compounds, in particular 2-oxo-4,4,5,5,6,6,7,7-octahydrobenzoxazole derivatives, and their use as antibacterial compounds” (priority 2016, dated 2019).
Values after ≈ are worked out from the molar mass of the structure shown. Read-outs that look alike come from different tables or passages of the source.

Experiments:
[1] = system: Acinetobacter baumannii NCTC 13420; assay: MIC, broth microdilution (CLSI) versus planktonic bacteria; type: cell-based
[2] = system: Acinetobacter baumannii ATCC 19606; assay: as above; type: cell-based
[3] = system: Enterobacter cloacae NCTC 13406; assay: as above; type: cell-based
[4] = system: Escherichia coli ATCC 25922; assay: as above; type: cell-based
[5] = system: Haemophilus influenzae ATCC 49247; assay: as above; type: cell-based
[6] = system: Pseudomonas aeruginosa ATCC 27853; assay: as above; type: cell-based
[7] = system: Staphylococcus aureus ATCC 29213; assay: as above; type: cell-based
[8] = system: Streptococcus pneumoniae ATCC 49619; assay: as above; type: cell-based
[9] = system: human hepatic cell line (HepG2 ATCC HB-8065); assay: Human cell viability assay (CellTiter-Glo); conditions: Homo sapiens, HepG2, 24 h, read-out: IC50 (μg/mL) HepG2
E. coli MG1655 = assay: MIC, broth microdilution (CLSI) versus planktonic bacteria; type: cell-based, Escherichia coli; conditions: Escherichia coli, MG1655, read-out: MIC, Ec MG1655 WT
E. coli MG1655 S83L = type: cell-based, Escherichia coli; conditions: compared to the isogenic parent strain E. coli MG1655; S83L mutation on DNA gyrase subunit GyrA
E. coli MG1655 D87G = type: cell-based, Escherichia coli; conditions: compared to the isogenic parent strain E. coli MG1655; D87G mutation on DNA gyrase subunit GyrA
E. coli ATCC BAA-2452 = assay: MIC, broth microdilution (CLSI) versus planktonic bacteria; type: cell-based; conditions: Escherichia coli ATCC BAA-2452; 16-20 h; mode of three independent experiments; read-out: MIC, Ec ATCC BAA 2452
E. coli NCTC 13476 = assay: as above; type: cell-based; conditions: NCTC13476; Escherichia coli NCTC 13476; 16-20 h; mode of three independent experiments; read-out: MIC, Ec NCTC 13476
[10] = NCTC13420, Acinetobacter baumannii NCTC 13420, 16-20 h, mode of three independent experiments, read-out: MIC, Ab NCTC 13420
[11] = ATCC19606, Acinetobacter baumannii ATCC 19606, 16-20 h, mode of three independent experiments, read-out: MIC, Ab ATCC 19606
[12] = NCTC13406, Enterobacter cloacae NCTC 13406, 16-20 h, mode of three independent experiments, read-out: MIC, Ecl NCTC 13406
[13] = ATCC25922, Escherichia coli ATCC 25922, 16-20 h, mode of three independent experiments, read-out: MIC, Ec ATCC 25922
[14] = ATCC49247, Haemophilus influenzae ATCC 49247, 16-20 h, mode of three independent experiments, read-out: MIC, Hi ATCC 49247
[15] = ATCC27853, Pseudomonas aeruginosa ATCC 27853, 16-20 h, mode of three independent experiments, read-out: MIC, Pa ATCC 27853
[16] = ATCC29213, Staphylococcus aureus ATCC 29213, 16-20 h, mode of three independent experiments, read-out: MIC, Sa ATCC 29213
[17] = ATCC49619, Streptococcus pneumoniae ATCC 49619, 16-20 h, mode of three independent experiments, read-out: MIC, Sp ATCC 49619

Structure (SMILES)	MIC [1, 10] [µg/mL]	MIC [2, 11] [µg/mL]	MIC [3, 12] [µg/mL]	MIC [4, 13] [µg/mL]	MIC [5, 14] [µg/mL]	MIC [6, 15] [µg/mL]	MIC [7, 16] [µg/mL]	MIC [8, 17] [µg/mL]	IC50 [9] [µg/mL]	MIC (E. coli MG1655) [µg/mL]	Fold increase in MIC, E. coli MG1655 S83L (E. coli MG1655 S83L) [fold]	Fold increase in MIC, E. coli MG1655 D87G (E. coli MG1655 D87G) [fold]	other results
COc1ccc2ccc(=O)n(CCCN[C@@H]3CC[C@@H]4[C@@H](C3)OC(=O)N4c3ncc4c(n3)NC(=O)CO4)c2n1 [Compound 79, 1-(3-{[(3aR,6R,7aR)-2-oxo-3-{7-oxo-6H,7H,8H-pyrimido[5,4-b][1,4]oxazin-2-yl}-octahydro-1,3-benzoxazol-6-yl]amino}propyl)-7-methoxy-1,2-dihydro-1,8-naphthyridin-2-one]	< 1	1 to 10 (≈ 1.92 to 19.2 µM)	1 to 10 (≈ 1.92 to 19.2 µM)	< 1	< 1	1 to 10 (≈ 1.92 to 19.2 µM)	< 1	< 1	10 to 100 (≈ 19.2 to 192 µM)	–	–	–	–
COc1ccc2c3conc3c(=O)n(CCN[C@H]3CC[C@H]4[C@@H](C3)OC(=O)N4c3ccc4c(n3)NC(=O)CO4)c2c1 [Compound 11, (3aS,6S,7aR)-6-[(2-{7-methoxy-4-oxo-4H,5H-[1,2]oxazolo[3,4-c]quinolin-5-yl}ethyl)amino]-3-{3-oxo-2H,3H,4H-pyrido[3,2-b][1,4]oxazin-6-yl}-octahydro-1,3-benzoxazol-2-one]	< 1	1 to 10 (≈ 1.83 to 18.3 µM)	1 to 10 (≈ 1.83 to 18.3 µM)	< 1	1 to 10 (≈ 1.83 to 18.3 µM)	1 to 10 (≈ 1.83 to 18.3 µM)	< 1	1 to 10 (≈ 1.83 to 18.3 µM)	10 to 100 (≈ 18.3 to 183 µM)	< 1	2	1	–
N#Cc1ccc2c(ccc(=O)n2CCN[C@@H]2CC[C@@H]3[C@@H](C2)OC(=O)N3c2ccc3c(n2)NC(=O)CO3)c1 [Compound 106, 1-(2-{[(3aR,6R,7aR)-2-oxo-3-{3-oxo-2H,3H,4H-pyrido[3,2-b][1,4]oxazin-6-yl}-octahydro-1,3-benzoxazol-6-yl]amino}ethyl)-2-oxo-1,2-dihydroquinoline-6-carbonitrile]	1 to 10 (≈ 2 to 20 µM)	–	1 to 10 (≈ 2 to 20 µM)	< 1	–	–	< 1	< 1	–	< 1	–	–	–
N#Cc1cnc2ccc(=O)n(CCCN[C@H]3CC[C@H]4[C@H](C3)OC(=O)N4c3ccc4c(n3)NC(=O)CO4)c2c1 [Compound 82, 5-(3-{[(3aS,6S,7aS)-2-oxo-3-{3-oxo-2H,3H,4H-pyrido[3,2-b][1,4]oxazin-6-yl}-octahydro-1,3-benzoxazol-6-yl]amino}propyl)-6-oxo-5,6-dihydro-1,5-naphthyridine-3-carbonitrile]	1 to 10 (≈ 1.94 to 19.4 µM)	1 to 10 (≈ 1.94 to 19.4 µM)	1 to 10 (≈ 1.94 to 19.4 µM)	< 1	< 1	1 to 10 (≈ 1.94 to 19.4 µM)	< 1	< 1	–	< 1	0.5	1	MIC (E. coli ATCC BAA-2452): 1 to 10 µg/mL (≈ 1.94 to 19.4 µM)
COC(=O)c1ccc2ccc(=O)n(CCN[C@@H]3CC[C@@H]4[C@@H](C3)OC(=O)N4c3ccc4c(n3)NC(=O)CO4)c2c1 [Compound 36, methyl 1-(2-{[(3aR,6R,7aR)-2-oxo-3-{3-oxo-2H,3H,4H-pyrido[3,2-b][1,4]oxazin-6-yl}-octahydro-1,3-benzoxazol-6-yl]amino}ethyl)-2-oxo-1,2-dihydroquinoline-7-carboxylate]	< 1	< 1	< 1	< 1	< 1	1 to 10 (≈ 1.87 to 18.7 µM)	< 1	< 1	10 to 100 (≈ 18.7 to 187 µM)	–	–	–	–
O=C1COc2ccc(N3C(=O)O[C@@H]4C[C@@H](NCCn5c(=O)ccc6ccc(Oc7cccnc7)nc65)CC[C@@H]43)nc2N1 [Compound 12, 1-(2-{[(3aS,6S,7aR)-2-oxo-3-{3-oxo-2H,3H,4H-pyrido[3,2-b][1,4]oxazin-6-yl}-octahydro-1,3-benzoxazol-6-yl]amino}ethyl)-7-(pyridin-3-yloxy)-1,2-dihydro-1,8-naphthyridin-2-one]	1 to 10 (≈ 1.76 to 17.6 µM)	1 to 10 (≈ 1.76 to 17.6 µM)	1 to 10 (≈ 1.76 to 17.6 µM)	< 1	1 to 10 (≈ 1.76 to 17.6 µM)	1 to 10 (≈ 1.76 to 17.6 µM)	< 1	< 1	> 100	< 1	1	1	–
CNCCOc1ccc2ccc(=O)n(CCN[C@@H]3CC[C@@H]4[C@@H](C3)OC(=O)N4c3ccc4c(n3)NC(=O)CO4)c2c1 [Compound 39, (3aR,6R,7aR)—N-(2-{7-[2-(methylazaniumyl)ethoxy]-2-oxo-1,2-dihydroquinolin-1-yl}ethyl)-2-oxo-3-{3-oxo-2H,3H,4H-pyrido[3,2-b][1,4]oxazin-6-yl}-octahydro-1,3-benzoxazol-6-aminium dichloride]	–	–	–	–	–	–	–	–	> 100	–	–	–	MIC ([1]; Acinetobacter baumannii, NCTC13420, read-out: MIC, Ab NCTC 13420): 10 to 100 µg/mL; MIC ([2]; Acinetobacter baumannii, ATCC19606, read-out: MIC, Ab ATCC 19606): > 100 µg/mL; MIC ([3]; Enterobacter cloacae, NCTC13406, read-out: MIC, Ecl NCTC 13406): 10 to 100 µg/mL; MIC ([4]; Escherichia coli, ATCC25922, read-out: MIC, Ec ATCC 25922): 1 to 10 µg/mL; MIC ([5]; Haemophilus influenzae, ATCC49247, read-out: MIC, Hi ATCC 49247): 10 to 100 µg/mL; MIC ([6]; Pseudomonas aeruginosa, ATCC27853, read-out: MIC, Pa ATCC 27853): 1 to 10 µg/mL; MIC ([7]; Staphylococcus aureus, ATCC29213, read-out: MIC, Sa ATCC 29213): 1 to 10 µg/mL; MIC ([8]; Streptococcus pneumoniae, ATCC49619, read-out: MIC, Sp ATCC 49619): 1 to 10 µg/mL
COc1cnc2ccc(=O)n(CCN[C@H]3CC[C@H]4[C@H](C3)OC(=O)N4c3ccc4c(n3)NC(=O)CO4)c2c1 [Compound 42, 7-methoxy-1-{2-[(2-oxo-3-{3-oxo-2H,3H,4H-pyrido[3,2-b][1,4]oxazin-6-yl}-octahydro-1,3-benzoxazol-6-yl)amino]ethyl}-1,2-dihydro-1,5-naphthyridin-2-one]	< 1	1 to 10 (≈ 1.97 to 19.7 µM)	< 1	< 1	< 1	1 to 10 (≈ 1.97 to 19.7 µM)	< 1	< 1	> 100	< 1	1	2	–
COc1ccc2ccc(=O)n(CCN(CCN)[C@H]3CC[C@H]4[C@@H](C3)OC(=O)N4c3ccc4c(n3)NC(=O)CO4)c2n1 [Compound 13, 1-(2-{[(3aS,6S,7aR)-2-oxo-3-{3-oxo-2H,3H,4H-pyrido[3,2-b][1,4]oxazin-6-yl}-octahydro-1,3-benzoxazol-6-yl](2-aminoethyl)amino}ethyl)-7-methoxy-1,2-dihydro-1,8-naphthyridin-2-one]	10 to 100 (≈ 18.2 to 182 µM)	–	10 to 100 (≈ 18.2 to 182 µM)	1 to 10 (≈ 1.82 to 18.2 µM)	10 to 100 (≈ 18.2 to 182 µM)	1 to 10 (≈ 1.82 to 18.2 µM)	< 1	1 to 10 (≈ 1.82 to 18.2 µM)	> 100	–	–	–	MIC (E. coli NCTC 13476): 1 to 10 µg/mL (≈ 1.82 to 18.2 µM)
C[C@H]1COc2c(N3CCN(C)CC3)c(F)cc3c(=O)c(C(=O)O)cn1c23 [LEV, levofloxacin, reference compound]	–	–	–	–	–	–	–	–	–	–	8	8	–
N#Cc1ccc2ccc(=O)n(CCN[C@@H]3CC[C@@H]4[C@@H](C3)OC(=O)N4c3ncc4c(n3)NC(=O)CO4)c2c1 [Compound 37, 1-(2-{[(3aR,6R,7aR)-2-oxo-3-{7-oxo-6H,7H,8H-pyrimido[5,4-b][1,4]oxazin-2-yl}-octahydro-1,3-benzoxazol-6-yl]amino}ethyl)-2-oxo-1,2-dihydroquinoline-7-carbonitrile]	1 to 10 (≈ 1.99 to 19.9 µM)	1 to 10 (≈ 1.99 to 19.9 µM)	< 1	< 1	< 1	1 to 10 (≈ 1.99 to 19.9 µM)	< 1	< 1	> 100	–	–	–	–
